Laboratory results from ChEMBL document CHEMBL1201862, “PubChem BioAssay data set” (2004).
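Each compound was tested at five concentrations against cells in 96-well plates for 48 hours. The concentration for 50% growth inhibition is given as GI50.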 Activity calls are given as the source filed them. No stated cut-off is given here; in the data, active = GI50 up to about 1.1 µM and inactive = higher.

How the values were obtained:
Assay in all cases: DTP human tumour cell line panel, 48 h
M14 = tested on: M14
UACC-257 = tested on: UACC-257
COLO 205 = tested on: COLO 205
SF-268 = tested on: SF-268
SK-MEL-2 = tested on: SK-MEL-2
786-0 = tested on: 786-0
NCI-H226 = tested on: NCI-H226
NCI-H460 = tested on: NCI-H460
LOX IMVI = tested on: LOX IMVI
DU-145 = tested on: DU-145
MDA-N = tested on: MDA-N
SN12C = tested on: SN12C
Hs-578T = tested on: Hs-578T
HCT-15 = tested on: HCT-15
MDA-MB-231 = tested on: MDA-MB-231
SW-620 = tested on: SW-620
MOLT-4 = tested on: MOLT-4
UO-31 = tested on: UO-31
LXFL 529 = tested on: LXFL 529
M19-MEL = tested on: M19-MEL

Structure (SMILES) | GI50 (M14) | GI50 (UACC-257) | GI50 (COLO 205) | GI50 (SF-268) | GI50 (SK-MEL-2) | GI50 (786-0) | GI50 (NCI-H226) | GI50 (NCI-H460) | GI50 (LOX IMVI) | GI50 (DU-145) | GI50 (MDA-N) | GI50 (SN12C) | GI50 (Hs-578T) | GI50 (HCT-15) [µM] | GI50 (MDA-MB-231) | GI50 (SW-620) | GI50 (MOLT-4) | GI50 (UO-31) | GI50 (LXFL 529) | GI50 (M19-MEL)
NS(=O)(=O)c1cc(C(=O)O)c(Cl)c([N+](=O)[O-])c1Cl | > 100 µM (inactive) | > 100 µM (inactive) | > 100 µM (inactive) | > 100 µM (inactive) | > 100 µM (inactive) | > 100 µM (inactive) | > 100 µM (inactive) | > 100 µM (inactive) | > 100 µM (inactive) | > 100 µM (inactive) | > 100 µM (inactive) | > 100 µM (inactive) | > 100 µM (inactive) | > 100 | > 100 µM (inactive) | > 100 µM (inactive) | > 100 µM (inactive) | > 100 µM (inactive) | – | –
C/C(CC(=O)Nc1ccc(C)c(C)c1)=N\N(c1ccccc1)c1ccccc1 | > 100 µM (inactive) | > 100 µM (inactive) | 18.3 µM (inactive) | 58.7 µM (inactive) | 55.6 µM (inactive) | 99.1 µM (inactive) | > 100 µM (inactive) | > 100 µM (inactive) | 36.1 µM (inactive) | – | – | 42.9 µM (inactive) | – | 49 | – | – | 62.5 µM (inactive) | 46 µM (inactive) | 64.1 µM (inactive) | –
COc1ccccc1C(=O)Nc1ccc(Cl)c(C(=O)OC(C)C)c1 | > 54.6 µM (inactive) | 30.5 µM (inactive) | > 61.5 µM (inactive) | > 50.6 µM (inactive) | 31.8 µM (inactive) | 38 µM (inactive) | 47.4 µM (inactive) | 37.4 µM (inactive) | 43 µM (inactive) | 49.2 µM (inactive) | 31.1 µM (inactive) | 52.2 µM (inactive) | > 100 µM (inactive) | 32.1 | > 100 µM (inactive) | > 61.1 µM (inactive) | > 45.8 µM (inactive) | 18.5 µM (inactive) | – | 30.8 µM (inactive)
CCOC1=NC(C(F)(F)F)(C(F)(F)F)N=C(/N=C(/N)N(C)C(C(C)C)P(=O)(OC(C)C)OC(C)C)O1 (configuration not stated) | > 100 µM (inactive) | 70.3 µM (inactive) | > 100 µM (inactive) | 48.4 µM (inactive) | 91.4 µM (inactive) | > 100 µM (inactive) | > 100 µM (inactive) | > 100 µM (inactive) | 81.5 µM (inactive) | > 100 µM (inactive) | > 100 µM (inactive) | 76 µM (inactive) | 61.4 µM (inactive) | 58.7 | > 100 µM (inactive) | 49.5 µM (inactive) | 20.1 µM (inactive) | > 100 µM (inactive) | – | –
Clc1ccc(-c2nn3c(-c4ccncc4)nnc3s2)cc1 | > 100 µM (inactive) | > 100 µM (inactive) | > 100 µM (inactive) | 37.4 µM (inactive) | > 100 µM (inactive) | 11 µM (inactive) | > 100 µM (inactive) | > 100 µM (inactive) | > 100 µM (inactive) | 42.9 µM (inactive) | > 100 µM (inactive) | > 100 µM (inactive) | > 100 µM (inactive) | 16.4 | 66.7 µM (inactive) | > 100 µM (inactive) | > 100 µM (inactive) | > 100 µM (inactive) | – | –
COc1ccc(/C=N/C23CC4CC(CC(C4)C2)C3)cc1 | > 100 µM (inactive) | > 100 µM (inactive) | > 10 µM (inactive) | > 100 µM (inactive) | > 100 µM (inactive) | > 100 µM (inactive) | > 100 µM (inactive) | > 100 µM (inactive) | > 100 µM (inactive) | – | – | > 100 µM (inactive) | – | > 100 | – | > 100 µM (inactive) | > 100 µM (inactive) | > 100 µM (inactive) | – | > 10 µM (inactive)
CN(C)C(=O)OC1=CC2CCC(C1)N2C (configuration not stated) | 79.1 µM (inactive) | > 100 µM (inactive) | > 100 µM (inactive) | > 100 µM (inactive) | > 100 µM (inactive) | > 100 µM (inactive) | 0.685 µM (active) | 32.4 µM (inactive) | 61.4 µM (inactive) | > 100 µM (inactive) | > 100 µM (inactive) | > 100 µM (inactive) | > 100 µM (inactive) | 48.3 | > 100 µM (inactive) | > 100 µM (inactive) | 52.8 µM (inactive) | 52.5 µM (inactive) | – | –
CCCCCC[C@H]1C(=O)O[C@H](C)[C@H](NC(=O)c2cccc(NC=O)c2OC)C(=O)O[C@@H](C)[C@@H]1OC(=O)C(C)CC.CCCCCC[C@H]1C(=O)O[C@H](C)[C@H](NC(=O)c2cccc(NC=O)c2OC)C(=O)O[C@@H](C)[C@@H]1OC(=O)CC(C)C (some centres not stated) | 39.7 µM (inactive) | 3.96 µM (inactive) | 7.62 µM (inactive) | 26.1 µM (inactive) | 25.6 µM (inactive) | 18.6 µM (inactive) | 17.6 µM (inactive) | 4.83 µM (inactive) | 25.9 µM (inactive) | 15.7 µM (inactive) | 13.2 µM (inactive) | 29.6 µM (inactive) | 12.1 µM (inactive) | 14.7 | 15.8 µM (inactive) | 14.5 µM (inactive) | 6.65 µM (inactive) | 46.8 µM (inactive) | – | –
CC(C)(C)OC(=O)NCC(=O)N(CCc1ccc(Cl)c(Cl)c1)CCN1CCCC1 | 14.3 µM (inactive) | 15.7 µM (inactive) | 13.6 µM (inactive) | 15.3 µM (inactive) | 16.9 µM (inactive) | 14 µM (inactive) | 15 µM (inactive) | 15.8 µM (inactive) | 14.6 µM (inactive) | 16.9 µM (inactive) | 14.3 µM (inactive) | 17.3 µM (inactive) | 18.8 µM (inactive) | 17.7 | 13.1 µM (inactive) | 16.6 µM (inactive) | 8.41 µM (inactive) | 14.6 µM (inactive) | – | –
CCCCCCCCCCCc1noc2c1C(=O)C(O)CC2 (configuration not stated) | 27.2 µM (inactive) | 20.5 µM (inactive) | 30.5 µM (inactive) | 38.5 µM (inactive) | 17.5 µM (inactive) | 17.9 µM (inactive) | 16.1 µM (inactive) | 20 µM (inactive) | 18.1 µM (inactive) | – | – | 16.1 µM (inactive) | – | 20.7 | – | 18 µM (inactive) | 22.3 µM (inactive) | 23.3 µM (inactive) | 16.6 µM (inactive) | –
O=C(N/C(=C\c1ccccc1)C1Nc2ccccc2C(=O)O1)c1ccccc1 (configuration not stated) | 20.2 µM (inactive) | 20.6 µM (inactive) | 30.4 µM (inactive) | 44 µM (inactive) | 22.5 µM (inactive) | 24.5 µM (inactive) | 25.6 µM (inactive) | 16.6 µM (inactive) | 18.2 µM (inactive) | 54.1 µM (inactive) | 23.7 µM (inactive) | 28.2 µM (inactive) | 30.3 µM (inactive) | 31.8 | 41.3 µM (inactive) | 23.6 µM (inactive) | 18.7 µM (inactive) | 19.6 µM (inactive) | – | –
COc1cccc(-c2cc(=O)c3cc(N4CCCCC4)ccc3[nH]2)c1 | < 0.0132 µM (active) | > 100 µM (inactive) | < 0.0139 µM (active) | 0.16 µM (active) | 0.521 µM (active) | < 0.0119 µM (active) | 0.0127 µM (active) | < 0.0199 µM (active) | < 0.0177 µM (active) | 0.0622 µM (active) | < 0.01 µM (active) | 0.0332 µM (active) | < 0.014 µM (active) | < 0.0167 | 0.0432 µM (active) | < 0.0145 µM (active) | 0.024 µM (active) | 7.29 µM (inactive) | – | –
O=C(OCCN=c1c2ccccc2ccc2ccccc12)c1cc([N+](=O)[O-])cc([N+](=O)[O-])c1 | > 100 µM (inactive) | > 100 µM (inactive) | > 100 µM (inactive) | > 100 µM (inactive) | > 100 µM (inactive) | > 100 µM (inactive) | > 100 µM (inactive) | > 100 µM (inactive) | > 100 µM (inactive) | > 100 µM (inactive) | > 100 µM (inactive) | > 100 µM (inactive) | > 100 µM (inactive) | > 100 | > 100 µM (inactive) | > 100 µM (inactive) | > 100 µM (inactive) | > 100 µM (inactive) | – | –
C=C(C)C(O)C(O)C[C@@H](C)C1CC[C@]23C[C@]12CCC1[C@@]2(C)CCC(OC(C)=O)C(C)(C)C2CC(OC2OC(CO)C(O)C(O)C2O)[C@]13C (some centres not stated) | 15.2 µM (inactive) | 17 µM (inactive) | 17.6 µM (inactive) | 18.3 µM (inactive) | 16.6 µM (inactive) | 19.1 µM (inactive) | 20.6 µM (inactive) | 17.9 µM (inactive) | 17.6 µM (inactive) | 21.2 µM (inactive) | 17.3 µM (inactive) | 16.8 µM (inactive) | 21 µM (inactive) | 40.9 | 15 µM (inactive) | 16.7 µM (inactive) | 18.5 µM (inactive) | > 100 µM (inactive) | – | –
COc1ccc2c(=O)c(C)c(-c3ccccc3)oc2c1CN(C)C [DIMEFLINE] | > 100 µM (inactive) | – | > 100 µM (inactive) | – | – | > 100 µM (inactive) | > 100 µM (inactive) | > 100 µM (inactive) | > 100 µM (inactive) | – | – | – | – | – | – | – | > 100 µM (inactive) | > 100 µM (inactive) | > 100 µM (inactive) | –
C=C1C[C@]23C[C@@]1(O)CC[C@H]2[C@@]12C=C[C@H](O)[C@@](C)(C(=O)O1)[C@H]2[C@@H]3C(=O)O [GIBBERELLIN A3] | > 100 µM (inactive) | > 100 µM (inactive) | > 100 µM (inactive) | > 100 µM (inactive) | > 100 µM (inactive) | > 100 µM (inactive) | > 100 µM (inactive) | > 100 µM (inactive) | > 100 µM (inactive) | – | – | > 100 µM (inactive) | – | > 100 | – | > 100 µM (inactive) | > 100 µM (inactive) | > 100 µM (inactive) | – | > 100 µM (inactive)
